Reference: patent US20230398130A1, “METHODS AND COMPOSITIONS FOR DIFFERENTIATING STEM CELLS” (Massachusetts Institute of Technology, priority 2020, published 2023)

Columns and labels:
[1] = tested on: ISC-enriched organoids; experiment: Primary screen, 384-well 2.5-D organoid differentiation (ENR+CD, 6 days, Target Selective Inhibitor Library, vs whole-plate median): ATP (CellTiter-Glo 3D, CTG); settings: for Dose.FC.CTG (log 2 fold change): vs plate median; for Dose.FC.CTG: FC vs plate median; for Z.CTG: standard z score of FC
[2] = tested on: ISC-enriched organoids; experiment: Primary screen, 384-well 2.5-D organoid differentiation (ENR+CD, 6 days): carbachol-induced lysozyme secretion (LYZ.S); format: cell-based, murine; settings: for Dose.FC.LYZ.S (log 2 fold change): vs plate median; for Dose.FC.LYZ.S: FC vs plate median
Excerpt: (§1) High-throughput screening.

[3] = tested on: ISC-enriched organoids; experiment: Primary screen, 384-well 2.5-D organoid differentiation (ENR+CD, 6 days): basal lysozyme secretion (LYZ.NS); format: cell-based, murine; settings: for Dose.FC.LYZ.NS (log 2 fold change): vs plate median; for Dose.FC.LYZ.NS: FC vs plate median; for Z.LYZ.NS: standard z score of FC
Excerpt: as §1

[4] = dose 0.08 uM (1st of 4 lines per treatment; dose not printed in this part)
[5] = dose 0.40 uM (2nd of 4 lines per treatment; dose not printed in this part)
[6] = dose 2.00 uM (3rd of 4 lines per treatment; dose not printed in this part)
[7] = dose 10.00 uM (4th of 4 lines per treatment; dose not printed in this part)
[8] = primary screen, dose 0.08 uM, ENR+CD 6 days
[9] = primary screen, dose 0.40 uM, ENR+CD 6 days
[10] = primary screen, dose 2.00 uM, ENR+CD 6 days
[11] = primary screen, dose 10.00 uM, ENR+CD 6 days

Cc1cn([C@H]2C=C[C@@H](CO)O2)c(=O)[nH]c1=O [Stavudine (d4T)]
Z.CTG (standard z score) ([1]; Dose 0.08 uM, primary screen): 0.226 | Dose.FC.CTG (log 2 fold change) ([1]; Dose 0.08 uM, primary screen): 0.095 | Z.CTG (standard z score) ([1]; Dose 0.40 uM, primary screen): 0.351 | Dose.FC.CTG (log 2 fold change) ([1]; Dose 0.40 uM, primary screen): 0.147 | Z.CTG (standard z score) ([1]; Dose 2.00 uM, primary screen): 0.179 | Dose.FC.CTG (log 2 fold change) ([1]; Dose 2.00 uM, primary screen): 0.075 | Z.CTG (standard z score) ([1]; Dose 10.00 uM, primary screen): −0.179 | Dose.FC.CTG (log 2 fold change) ([1]; Dose 10.00 uM, primary screen): −0.075 | Dose.FC.LYZ.S (log 2 fold change) ([2]; Dose 0.08 uM, primary screen): 0.134 | Dose.FC.LYZ.S (log 2 fold change) ([2]; Dose 0.40 uM, primary screen): 0.001 | Dose.FC.LYZ.S (log 2 fold change) ([2]; Dose 2.00 uM, primary screen): −0.003 | Dose.FC.LYZ.S (log 2 fold change) ([2]; Dose 10.00 uM, primary screen): −0.120 | Z.LYZ.NS (standard z score) ([3]; Dose 0.08 uM, primary screen): 0.620 | Dose.FC.LYZ.NS (log 2 fold change) ([3]; Dose 0.08 uM, primary screen): 0.071 | Z.LYZ.NS (standard z score) ([3]; Dose 0.40 uM, primary screen): 0.027 | Dose.FC.LYZ.NS (log 2 fold change) ([3]; Dose 0.40 uM, primary screen): 0.003 | Z.LYZ.NS (standard z score) ([3]; Dose 2.00 uM, primary screen): 0.074 | Dose.FC.LYZ.NS (log 2 fold change) ([3]; Dose 2.00 uM, primary screen): 0.009 | Z.LYZ.NS (standard z score) ([3]; Dose 10.00 uM, primary screen): −0.828 | Dose.FC.LYZ.NS (log 2 fold change) ([3]; Dose 10.00 uM, primary screen): −0.095

C[C@H](Oc1cc(-c2cnn(C3CCNCC3)c2)cnc1N)c1c(Cl)ccc(F)c1Cl [(S)-crizotinib]
SSMD.CTG_Rep (strictly standardized mean difference) [1, 4]: 0.742 | SSMD.CTG_Rep (strictly standardized mean difference) [1, 5]: 0.190 | SSMD.CTG_Rep (strictly standardized mean difference) [1, 6]: 0.285 | SSMD.CTG_Rep (strictly standardized mean difference) [1, 7]: 0.034 | Dose.FC.CTG [1, 8]: 0.241 log 2 fold change | Z.CTG ([1]; primary screen, dose 0.08 uM): 0.575 | Dose.FC.CTG [1, 9]: 0.054 log 2 fold change | Z.CTG ([1]; primary screen, dose 0.40 uM): 0.130 | Dose.FC.CTG [1, 10]: 0.111 log 2 fold change | Z.CTG ([1]; primary screen, dose 2.00 uM): 0.266 | Dose.FC.CTG [1, 11]: 0.019 log 2 fold change | Z.CTG ([1]; primary screen, dose 10.00 uM): 0.046 | SSMD.LYZ.S_Rep (strictly standardized mean difference) [2, 4]: 0.881 | Z.LYZ.S (standard z score) [2, 4]: 0.808 | SSMD.LYZ.S_Rep (strictly standardized mean difference) [2, 5]: 0.084 | Z.LYZ.S (standard z score) [2, 5]: 0.103 | SSMD.LYZ.S_Rep (strictly standardized mean difference) [2, 6]: −0.343 | Z.LYZ.S (standard z score) [2, 6]: −0.383 | SSMD.LYZ.S_Rep (strictly standardized mean difference) [2, 7]: −0.491 | Z.LYZ.S (standard z score) [2, 7]: −0.720 | Dose.FC.LYZ.S [2, 8]: 0.125 log 2 fold change | Dose.FC.LYZ.S [2, 9]: 0.016 log 2 fold change | Dose.FC.LYZ.S [2, 10]: −0.059 log 2 fold change | Dose.FC.LYZ.S [2, 11]: −0.111 log 2 fold change | SSMD.LYZ.NS_Rep (strictly standardized mean difference) [3, 4]: 0.838 | SSMD.LYZ.NS_Rep (strictly standardized mean difference) [3, 5]: 0.094 | SSMD.LYZ.NS_Rep (strictly standardized mean difference) [3, 6]: −0.229 | SSMD.LYZ.NS_Rep (strictly standardized mean difference) [3, 7]: −0.438 | Dose.FC.LYZ.NS [3, 8]: 0.193 log 2 fold change | Z.LYZ.NS ([3]; primary screen, dose 0.08 uM): 1.679 | Dose.FC.LYZ.NS [3, 9]: 0.009 log 2 fold change | Z.LYZ.NS ([3]; primary screen, dose 0.40 uM): 0.081 | Dose.FC.LYZ.NS [3, 10]: −0.034 log 2 fold change | Z.LYZ.NS ([3]; primary screen, dose 2.00 uM): −0.294 | Dose.FC.LYZ.NS [3, 11]: −0.068 log 2 fold change | Z.LYZ.NS ([3]; primary screen, dose 10.00 uM): −0.588

CNC(=O)c1ccc(N2C(=S)N(c3ccc(C#N)c(C(F)(F)F)c3)C(=O)C2(C)C)cc1F [Enzalutamide (MDV3100)]
Dose.FC.CTG ([1]; Dose 0.08 uM, ENR+CD, 6 days): 0.195 log 2 fold change | Z.CTG ([1]; Dose 0.08 uM): 0.465 | Dose.FC.CTG ([1]; Dose 0.40 uM, ENR+CD, 6 days): 0.256 log 2 fold change | Z.CTG ([1]; Dose 0.40 uM): 0.611 | Dose.FC.CTG ([1]; Dose 2.00 uM, ENR+CD, 6 days): 0.076 log 2 fold change | Z.CTG ([1]; Dose 2.00 uM): 0.181 | Dose.FC.CTG ([1]; Dose 10.00 uM, ENR+CD, 6 days): 0.146 log 2 fold change | Z.CTG ([1]; Dose 10.00 uM): 0.348 | Dose.FC.LYZ.S ([2]; Dose 0.08 uM, ENR+CD, 6 days): 0.176 log 2 fold change | Dose.FC.LYZ.S ([2]; Dose 0.40 uM, ENR+CD, 6 days): 0.276 log 2 fold change | Dose.FC.LYZ.S ([2]; Dose 2.00 uM, ENR+CD, 6 days): 0.077 log 2 fold change | Dose.FC.LYZ.S ([2]; Dose 10.00 uM, ENR+CD, 6 days): 0.076 log 2 fold change | Dose.FC.LYZ.NS ([3]; Dose 0.08 uM, ENR+CD, 6 days): 0.162 log 2 fold change | Z.LYZ.NS ([3]; Dose 0.08 uM): 1.411 | Dose.FC.LYZ.NS ([3]; Dose 0.40 uM, ENR+CD, 6 days): 0.166 log 2 fold change | Z.LYZ.NS ([3]; Dose 0.40 uM): 1.446 | Dose.FC.LYZ.NS ([3]; Dose 2.00 uM, ENR+CD, 6 days): 0.024 log 2 fold change | Z.LYZ.NS ([3]; Dose 2.00 uM): 0.210 | Dose.FC.LYZ.NS ([3]; Dose 10.00 uM, ENR+CD, 6 days): 0.094 log 2 fold change | Z.LYZ.NS ([3]; Dose 10.00 uM): 0.820
